According to patent US12466885B2, “Bispecific chimeric antigen receptors and encoding polynucleotides, vectors and cells thereof” (Seattle Children's Hospital, priority 2012, dated 2025):

How the values were obtained:
transduced CTLL2 cells = experiment: MTX resistance and selection of CD19CAR-huEGFRt-hDHFR^FS transduced CTLL2 cells; type: cell-based, murine; settings: for huEGFRt^+ cells: 8 days
Method: CTLL2 T cells were first transduced with this CD19CAR-huEGFRt-hDHFR^FS lentiviral vector and evaluated for their resistance to MTX.
To further characterize the maximum dose of MTX that could be tolerated by selected CTLL2 cells, transduced CTLL2 cells that had been cultured in 0.1 μM MTX for 8 days were re-plated at a wider range of MTX concentrations (up to 0.75 μM).

[1] = system: non-transduced CTLL2 cells; experiment: MTX effect on non-transduced CTLL2 cells; type: cell-based, murine; settings: ≥0.05 μM MTX
From the text: In the absence of MTX, the non-transduced and transduced CTLL2 cells expanded at an equivalent rate (21- and 27-fold respectively).

[2] = system: transduced primary human T cells (CD62L^+CD45RO^+); experiment: MTX selection of CD19CAR-huEGFRt-hDHFR^FS transduced primary human T cells; type: cell-based
Method: (§1) Applicants transduced primary human T cells with the same CD19CAR-huEGFRt-hDHFR^FS lentiviral vector. Purified CD62L^+CD45RO^+ T cells were used as a starting population based on their potential for persistence after adoptive transfer. Ten days after transduction, these T cells were cultured in varying concentrations of MTX and assessed for cell number and viability over time.

[3] = system: non-transduced primary human T cells; experiment: MTX effect on non-transduced primary human T cells; type: cell-based; settings: starting at concentrations as low as 0.025 μM MTX
Method: as §1

huEGFRt^+ T cells = experiment: ADCC of huEGFRt^+ T cells, 4-hour chromium release assay; type: cell-based, human
From the text: A valuable feature of a cell surface selection/tracking marker would be its capacity to serve as a target for in vivo cell ablation.
^51Cr-labeled huEGFRt^+ T cells as the target cells and human GM-CSF activated fresh PBMCs as effectors were co-cultured.

CN(Cc1cnc2nc(N)nc(N)c2n1)c1ccc(C(=O)N[C@@H](CCC(=O)O)C(=O)O)cc1 [MTX, methotrexate]
huEGFRt^+ cells (transduced CTLL2 cells; 0.01 μM MTX): 49% | huEGFRt^+ cells (transduced CTLL2 cells; 0.025 μM MTX): 93% | huEGFRt^+ cells (transduced CTLL2 cells; 0.05 μM MTX): 98.5% | huEGFRt^+ cells (transduced CTLL2 cells; 0.1 μM MTX): 99% | expansion of transduced cells (transduced CTLL2 cells; MTX (0-0.1 μM) for 8 days): 7 fold | survival of transduced cells (transduced CTLL2 cells; MTX (0-0.1 μM) for 8 days): 80% | expansion of transduced and pre-MTX selected cells (transduced CTLL2 cells; MTX concentrations up to 0.25 μM, pre-cultured in 0.1 μM MTX for 8 days): 90-100 fold | non-transduced CTLL2 cell expansion and viability [1]: strong inhibition | CD19CAR^+ cells ([2]; 0.025 μM MTX, 10 days): about 54% | EGFRt^+ cells ([2]; 0.025 μM MTX, 10 days): ~79% | CD19CAR^+ cells ([2]; 0.05 μM MTX, 10 days): about 76% | EGFRt^+ cells ([2]; 0.05 μM MTX, 10 days): ~89% | viability of transduced T cells ([2]; 0.1 μM MTX): 63% | CD19CAR^+ cells ([2]; Day 6 of culture (Day 0: 18%)): 48% | EGFRt^+ cells ([2]; Day 6 of culture (Day 0: 28%)): 71% | CD19CAR^+ cells ([2]; Day 10 of culture): 70% | EGFRt^+ cells ([2]; Day 10 of culture): 88% | viability and fold-expansion of non-transduced primary human T cells [3]: strong inhibition

RITUXAN® (rituximab): CD20-specific mAb
triggering ADCC of huEGFRt^+ T cells (huEGFRt^+ T cells): no effect
